# Measurements published in publication PMC8634879, “Design, Synthesis, and Biological Evaluation of Pyrano[2,3-c]-pyrazole–Based RalA Inhibitors Against Hepatocellular Carcinoma” (Frontiers in Chemistry, 2021).
# Where two headings read alike, the source gives them in different places.
# Columns and labels:
# RalA [1] = target: T1, RalA (Homo sapiens, UniProt P11233); test: ELISA-based RalA activity assay (RalBP1-coated plates, lysates of compound-treated cells); assay type: biochemical
# T1 construct: expressed in transfected cells; host or cells: HepG2 (from b6; the methods paragraph names no cell line)
# T1 sequence (P11233 1-203 limits assumed): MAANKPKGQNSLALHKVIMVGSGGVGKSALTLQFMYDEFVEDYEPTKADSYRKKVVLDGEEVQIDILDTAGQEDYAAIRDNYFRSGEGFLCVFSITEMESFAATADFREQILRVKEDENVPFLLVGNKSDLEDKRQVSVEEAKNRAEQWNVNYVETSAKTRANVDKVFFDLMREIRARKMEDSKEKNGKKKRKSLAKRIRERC
# Procedure, shortened: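 Lysates of compound- or vehicle-treated cells, cleared by cold centrifugation, incubated overnight at 4°C on RalBP1-coated plates. Bound Ral detected with mouse anti-FLAG then HRP anti-mouse antibody; reaction stopped with 2 mol/L sulfuric acid and read at OD450.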
# HepG2 cells [2] = test: Cell proliferation assay (MTT), HepG2; assay type: cell-based; conditions: Homo sapiens
# Procedure, shortened: (§1)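 HCC lines cultured in DMEM with 10% FBS and streptomycin; cytotoxicity measured by MTT method as previously described.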
# Hep3B cells = test: Cell proliferation assay (MTT), Hep3B; assay type: cell-based; conditions: Homo sapiens, average of at least three independent replicates ± SD, read-out: Anti-proliferative activities (IC50, μM) Hep3B
# Procedure: The antibodies recognizing LC3, p62/SQSTM1, RalA, RalB, and GAPDH were purchased from Proteintech (Wuhan, China). HCC cell lines, including HepG2, Hep3B, Huh-7, and SMMC-7721, were obtained from the Chinese Center for Type Culture Collection (Wuhan, China) and cultured in DMEM (Dulbecco’s modified Eagle’s medium) with 10% FBS (fetal bovine serum) and streptomycin. Cytotoxicity assays were performed by using the MTT method as previously described.
# (§2) The in vitro RalA/B bioactivity assays were performed following methods outlined in previous reports. ([Yan et al., 2016]; [Zhang et al., 2018]; [Walsh et al., 2019]; [Bum-Erdene et al., 2020]). In brief, the lysates of the test compound or vehicle-treated cells were cleared using cold centrifugation, and supernatants were collected. An RalBP1 solution was added to 96-well plates and incubated for 1–2 h, and then the plates were washed thrice using ELISA buffer. Next, cellular lysates were added, and samples were incubated overnight at 4°C. Then, ice-cold mouse anti-FLAG antibody was added, and samples were incubated for one more hour. After subsequent washing with ELISA buffer thrice, the HRP-conjugated anti-mouse antibody was added, and samples were incubated for another hour. Then, the HRP substrate was added. Antigen–antibody reactions were quenched by the addition of sulfuric acid (2 mol/L). Remaining RalA/B was detected by the OD450 values which were collected by using a plate reader. Cell proliferation assays, colony formation assays, apoptosis assays, GST pulldown, and Western blotting were used following methods outlined in our previous reports. ([Zhou et al., 2015]; [Zhang et al., 2016]; [Yang et al., 2017]; [He et al., 2019]). Autophagy levels and protein immunoblotting were used following the methods mentioned in our previous reports ([Pan et al., 2018]; [Wang et al., 2018]; [Hao et al., 2019]; [Wang et al., 2019]; [Peng et al., 2020]). Detailed experimental procedures are described in supporting materials.
# Huh-7 cells = test: Cell proliferation assay (MTT), Huh-7; assay type: cell-based; conditions: Homo sapiens
# Procedure, shortened: as §1
# RalA [3] = target: T1, RalA; test: GST pulldown of activated RalA; assay type: cell-based
# Procedure: GST pulldown assays were performed to assess 4p RalA/B inhibitory capacities. […] Only activated RalA was suppressed after incubation with 0.5 μM of compound 4p (Figure 5A).
# as §2
# HepG2 cells [4] = test: Autophagy assays in HepG2 cells (TEM, Western blotting, GFP-LC3 puncta); assay type: cell-based
# Procedure: Several reports have characterized RalA/B potential regulatory roles in autophagy ([Zhang et al., 2019]; [Pang et al., 2020]; [Zhang et al., 2020]). Considering the dual effect of HCC autophagy, we assessed changes in HepG2 cell autophagy levels after the addition of 0.5 or 2.0 μM of 4p, before incubation. Based on HepG2 cells’ TEM images with or without 4p (Figure 5B), autophagy vacuoles per cell decreased in the 4p-treated group (p < 0.01). After 4p treatments, LC3-II and ATG5 protein levels declined and SQSTM1 increased. […] In GFP-LC3–transfected HepG2 cells, cytoplasm LC3 fluorescent puncta numbers also declined after 4p treatments. […] The in vivo antitumor capacities of 4p were determined on a HepG2 subcutaneous xenograft model. The 4p intraperitoneal injections were set to 15 mg/kg and 60 mg/kg, according to in vitro results. […] The potential 4p molecular mechanisms were further validated using immunofluorescence and IHC analyses of tissue sections stained by antibodies against TUNEL, Ki-67, RalA, LC3-II, and SQSTM1. […] Therefore, the in vivo results were consistent with in vitro experiments. […]
# The autophagy assay is relied on HepG2 cells transfected by GFP-LC3. In brief, the HepG2 cells after transfecting are processed by saline or compound 4p for 6 h, after that the cells are going to fix by paraformaldehyde and the phenomenon of autophagosome punctures can be observed through the accumulated of GFP-LC3 under laser confocal microscopy.
# 2. Western blotting analysis
# For western blotting, the extracts of total protein from each sample were treated in accordance with the method we described previously. In short, the total proteins were loaded into the SDS-PAGE gel and separated through the different of their molecular weight in electrophoresis, after that the separated proteins were shifted into a PVDF membrane (Millipore, Burlington, MA, USA) and incubated through corresponding membrane react pathways. The resulted membranes reacted with major antibodies and HRP (horseradish peroxidase)-conjugated secondary antibodies. The expression profiles of target proteins can be identified through an enhanced chemiluminescence (ECL) substrate. […]
structure (smiles),measurement,setting,value
"COc1ccc(S(=O)(=O)NC2=C(C#N)C(c3ccc(C(F)(F)F)cc3)c3c(C)nn(-c4ccccc4)c3O2)cc1 (centres unmarked) [4p, N-(5-cyano-3-methyl-1-phenyl-4-(4-(trifluoromethyl)phenyl)-1,4-dihydropyrano[2,3-c]-pyrazol-6-yl)-4-methoxybenzenesulfonamide]",remaining activity at 1 µM,"RalA [1]; 1 μM compound, % control = activity remained",13%
same,IC50,"RalA [1]; enzymatic inhibition, average of at least three independent replicates ± SD, read-out: Kinase activities (IC50, μM) RalA",0.22 ± 0.04 µM
same,IC50,"HepG2 cells [2]; HepG2, Table 1, cell proliferation inhibition, read-out: IC50 (μM) HepG2",2.28 ± 0.23 µM
same,IC50,"HepG2 cells [2]; HepG2, Table 2, average of at least three independent replicates ± SD, read-out: Anti-proliferative activities (IC50, μM) HepG2",2.28 ± 0.23 µM
same,IC50,Hep3B cells,2.71 ± 0.27 µM
same,IC50,"Huh-7 cells; Table 1, cell proliferation inhibition, read-out: IC50 (μM) Huh7",4.31 ± 0.39 µM
same,IC50,"Huh-7 cells; Table 2, average of at least three independent replicates ± SD, read-out: Anti-proliferative activities (IC50, μM) Huh-7",4.31 ± 0.39 µM
same,activated RalA protein expression level,"RalA [3]; 0.5 μM, only activated RalA, not RalB",suppressed
same,activated RalA protein expression level,RalA [3]; 2.0 μM,significantly suppressed
same,total RalA expression,RalA [3]; GST pulldown experiment,unchanged
same,cytoplasm LC3 fluorescent puncta numbers,"HepG2 cells [4]; GFP-LC3–transfected HepG2 cells, 2.0 μM",declined
same,LC3-II and ATG5 protein levels (Western blotting),"HepG2 cells [4]; HepG2, 0.5 or 2.0 μM",declined
same,SQSTM1 protein level (Western blotting),"HepG2 cells [4]; HepG2, 0.5 or 2.0 μM",increased
same,autophagy vacuoles per cell (TEM),"HepG2 cells [4]; HepG2, 4p-treated group, p < 0.01",decreased
